Test results reported in patent US7981903B2, “2-[2-{phenylamino}-1H-pyrrolo[2,3-D]pyrimidin-4-yl)amino] benzamide derivatives as IGF-1R inhibitors for the treatment of cancer” (GlaxoSmithKline LLC, priority 2007, dated 2011).

Assays:
[1] = target: T1, NIH-3T3 cells overexpressing human IR (Homo sapiens, UniProt P06213); assay: IR cellular autophosphorylation (DELFIA); assay type: cell-based; details: 2 h compound, insulin 3 ug/ml for 15 minutes, IC50 category
T1 construct: expressed in transfected cells; host or cells: NIH-3T3 (mouse fibroblasts)
T1 sequence (P06213 28-1382): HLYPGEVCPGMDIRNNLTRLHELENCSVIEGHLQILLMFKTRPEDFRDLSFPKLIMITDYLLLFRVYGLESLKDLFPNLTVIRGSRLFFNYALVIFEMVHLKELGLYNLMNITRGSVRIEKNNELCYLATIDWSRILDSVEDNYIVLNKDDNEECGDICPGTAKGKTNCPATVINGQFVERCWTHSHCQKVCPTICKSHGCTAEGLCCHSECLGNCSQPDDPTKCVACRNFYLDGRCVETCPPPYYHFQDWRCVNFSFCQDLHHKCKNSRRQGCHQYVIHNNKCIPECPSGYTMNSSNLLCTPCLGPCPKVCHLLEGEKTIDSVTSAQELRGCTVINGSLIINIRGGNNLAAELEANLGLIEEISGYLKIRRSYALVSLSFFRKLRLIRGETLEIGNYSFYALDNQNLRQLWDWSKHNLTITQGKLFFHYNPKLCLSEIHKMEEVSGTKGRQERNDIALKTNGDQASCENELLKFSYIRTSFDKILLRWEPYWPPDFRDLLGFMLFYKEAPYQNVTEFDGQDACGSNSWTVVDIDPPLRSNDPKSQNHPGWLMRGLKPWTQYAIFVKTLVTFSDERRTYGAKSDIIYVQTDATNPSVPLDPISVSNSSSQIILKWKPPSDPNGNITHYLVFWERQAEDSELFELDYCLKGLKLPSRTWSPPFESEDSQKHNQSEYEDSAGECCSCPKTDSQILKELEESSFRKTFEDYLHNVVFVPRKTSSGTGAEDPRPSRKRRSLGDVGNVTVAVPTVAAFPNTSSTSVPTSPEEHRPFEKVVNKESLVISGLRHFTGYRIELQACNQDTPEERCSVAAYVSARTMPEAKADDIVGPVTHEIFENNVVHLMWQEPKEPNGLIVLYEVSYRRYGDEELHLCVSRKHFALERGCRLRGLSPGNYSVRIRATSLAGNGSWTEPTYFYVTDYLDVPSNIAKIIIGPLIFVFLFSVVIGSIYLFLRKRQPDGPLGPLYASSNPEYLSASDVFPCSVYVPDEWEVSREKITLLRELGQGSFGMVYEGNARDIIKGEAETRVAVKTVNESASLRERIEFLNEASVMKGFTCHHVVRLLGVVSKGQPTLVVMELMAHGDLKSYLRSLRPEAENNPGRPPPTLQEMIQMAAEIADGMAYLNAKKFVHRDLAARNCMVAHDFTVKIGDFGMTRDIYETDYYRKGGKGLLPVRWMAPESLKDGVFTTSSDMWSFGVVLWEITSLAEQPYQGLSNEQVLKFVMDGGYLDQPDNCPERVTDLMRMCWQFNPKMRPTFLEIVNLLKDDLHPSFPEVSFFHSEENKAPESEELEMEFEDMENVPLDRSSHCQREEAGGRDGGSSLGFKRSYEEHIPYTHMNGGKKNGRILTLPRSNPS
Procedure, shortened: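 Receptor autophosphorylation measured by DELFIA, capturing IGF-1R or IRβ and detecting with europium anti-pTyr, reported as percent of IGF-1- or insulin-stimulated signal. Compounds (30 uM to 1.5 nM) added 2 h before ligand, then 15 min stimulation (IGF-1 30 ng/ml or insulin 3 ug/ml).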

ALK = ALK (Homo sapiens, UniProt Q9UM73); assay: ALK enzyme assay (HTRF); assay type: biochemical; details: 0.25 nM ALK, 15.0 μM ATP, values given as pIC50 category
ALK, sequence (Q9UM73 19-1620): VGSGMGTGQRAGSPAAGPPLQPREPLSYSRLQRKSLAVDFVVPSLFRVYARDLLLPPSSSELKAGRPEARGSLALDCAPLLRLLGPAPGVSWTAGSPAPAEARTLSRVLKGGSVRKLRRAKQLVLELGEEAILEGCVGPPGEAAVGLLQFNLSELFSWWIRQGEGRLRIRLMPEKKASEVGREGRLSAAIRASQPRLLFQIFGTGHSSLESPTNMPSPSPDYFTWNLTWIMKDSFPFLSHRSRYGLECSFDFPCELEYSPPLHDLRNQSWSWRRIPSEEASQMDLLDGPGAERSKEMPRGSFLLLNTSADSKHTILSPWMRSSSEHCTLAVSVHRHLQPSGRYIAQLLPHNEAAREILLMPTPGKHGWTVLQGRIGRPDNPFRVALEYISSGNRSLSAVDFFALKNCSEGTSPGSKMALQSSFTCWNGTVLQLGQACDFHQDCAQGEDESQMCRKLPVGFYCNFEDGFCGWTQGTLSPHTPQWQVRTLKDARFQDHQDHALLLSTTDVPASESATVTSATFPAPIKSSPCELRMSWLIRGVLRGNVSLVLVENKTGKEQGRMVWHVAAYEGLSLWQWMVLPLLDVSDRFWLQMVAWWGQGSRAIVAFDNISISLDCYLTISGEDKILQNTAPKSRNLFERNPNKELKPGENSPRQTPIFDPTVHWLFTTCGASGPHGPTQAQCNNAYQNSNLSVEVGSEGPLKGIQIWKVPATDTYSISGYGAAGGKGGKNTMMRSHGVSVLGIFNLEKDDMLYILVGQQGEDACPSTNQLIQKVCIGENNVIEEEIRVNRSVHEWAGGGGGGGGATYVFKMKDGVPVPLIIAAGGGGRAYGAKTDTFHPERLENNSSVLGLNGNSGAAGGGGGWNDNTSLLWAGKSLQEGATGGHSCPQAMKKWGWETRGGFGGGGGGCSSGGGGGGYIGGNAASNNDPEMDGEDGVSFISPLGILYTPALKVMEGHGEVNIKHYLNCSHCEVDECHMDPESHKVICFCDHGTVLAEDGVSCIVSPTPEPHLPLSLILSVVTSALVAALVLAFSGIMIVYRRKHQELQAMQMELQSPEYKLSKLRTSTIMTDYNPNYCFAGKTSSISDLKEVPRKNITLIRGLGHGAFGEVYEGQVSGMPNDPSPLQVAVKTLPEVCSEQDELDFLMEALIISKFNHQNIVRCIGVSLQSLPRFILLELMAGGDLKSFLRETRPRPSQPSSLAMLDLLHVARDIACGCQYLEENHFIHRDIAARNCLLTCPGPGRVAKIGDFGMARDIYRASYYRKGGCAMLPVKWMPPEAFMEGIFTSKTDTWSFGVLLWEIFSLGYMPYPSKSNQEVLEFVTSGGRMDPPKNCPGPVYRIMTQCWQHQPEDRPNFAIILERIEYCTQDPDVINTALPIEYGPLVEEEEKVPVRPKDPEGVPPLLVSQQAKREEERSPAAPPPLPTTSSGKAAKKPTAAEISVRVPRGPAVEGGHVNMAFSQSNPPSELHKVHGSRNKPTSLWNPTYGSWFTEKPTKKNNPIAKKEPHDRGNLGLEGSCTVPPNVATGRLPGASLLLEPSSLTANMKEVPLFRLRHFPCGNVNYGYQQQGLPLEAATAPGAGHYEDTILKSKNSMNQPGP
Procedure, shortened: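 Isolated ALK phosphorylates a biotinylated tyrosine peptide, 120 min at 20° C; anti-phosphotyrosine Eu-cryptate/streptavidin-XL665 HTRF read after 60 min with EDTA-containing detection mix.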

Colo205 = assay: Inhibition of cell proliferation (CellTiter-Glo or InCell analyzer), Colo205; assay type: cell-based; details: Homo sapiens, COLO 205, 72 h / 3 days, values given as IC50 category
Procedure, shortened: In one

NCI-H929 = assay: Inhibition of cell proliferation (CellTiter-Glo or InCell analyzer), NCI-H929; assay type: cell-based; details: Homo sapiens, 72 h / 3 days, values given as IC50 category
Procedure, shortened: In one

Structure (SMILES)	IC50 [1]	IC50 (ALK)	IC50 (Colo205)	IC50 (NCI-H929)
CCCN(CCC)[C@@H](C)C(=O)N1CCc2cc(OC)c(Nc3nc(Nc4cccc(F)c4C(=O)NC)c4cc[nH]c4n3)cc21 [Example 191, 2-[(2-{[1-(N,N-dipropyl-L-alanyl)-5-(methyloxy)-2,3-dihydro-1H-indol-6-yl]amino}-1H-pyrrolo[2,3-d]pyrimidin-4-yl)amino]-6-fluoro-N-methylbenzamide]	> 500 nM	5.01 to 200 nM	> 1000 nM	> 1000 nM
COc1cc(OCCCN2CCN(C)CC2)ccc1Nc1nc(Nc2cccc(F)c2C(N)=O)c2cc[nH]c2n1 [Example 205, 2-fluoro-6-({2-[(2-(methyloxy)-4-{[3-(4-methyl-1-piperazinyl)propyl]oxy}phenyl)amino]-1H-pyrrolo[2,3-d]pyrimidin-4-yl}amino)benzamide]	100 to 500 nM	1.26 to 3.98 nM	< 250 nM	< 250 nM
COc1cc2c(cc1Nc1nc(Nc3cccc(F)c3C(N)=O)c3cc[nH]c3n1)N(C(=O)CN1CCCCC1)CCC2 [Example 218, 2-fluoro-6-[(2-{[6-(methyloxy)-1-(1-piperidinylacetyl)-1,2,3,4-tetrahydro-7-quinolinyl]amino}-1H-pyrrolo[2,3-d]pyrimidin-4-yl)amino]benzamide]	< 100 nM	0.251 to 1 nM	< 250 nM	< 250 nM
CNC(=O)c1c(F)cccc1Nc1nc(Nc2cc3c(cc2OC)CCN3C(C)=O)nc2[nH]ccc12 [Example 135, 2-[(2-{[1-acetyl-5-(methyloxy)-2,3-dihydro-1H-indol-6-yl]amino}-1H-pyrrolo[2,3-d]pyrimidin-4-yl)amino]-6-fluoro-N-methylbenzamide]	> 500 nM	1.26 to 3.98 nM	> 1000 nM	250 to 1000 nM
CCN(CC)CC(=O)N1CCc2cc(OC)c(Nc3nc(Nc4cccc(F)c4C(=O)NC)c4cc[nH]c4n3)cc21 [Example 137, 2-[(2-{[1-(N,N-diethylglycyl)-5-(methyloxy)-2,3-dihydro-1H-indol-6-yl]amino}-1H-pyrrolo[2,3-d]pyrimidin-4-yl)amino]-6-fluoro-N-methylbenzamide]	100 to 500 nM	5.01 to 200 nM	250 to 1000 nM	< 250 nM
COc1cc2c(cc1Nc1nc(Nc3cccc(F)c3C(N)=O)c3cc[nH]c3n1)N(C(C)=O)CC2 [Example 134, 2-[(2-{[1-acetyl-5-(methyloxy)-2,3-dihydro-1H-indol-6-yl]amino}-1H-pyrrolo[2,3-d]pyrimidin-4-yl)amino]-6-fluorobenzamide]	< 100 nM	1.26 to 3.98 nM	250 to 1000 nM	< 250 nM
COc1cc2c(cc1Nc1nc(Nc3cccc(F)c3C(N)=O)c3cc[nH]c3n1)N(CCN(C)C)CC2 [Example 117, 2-[(2-{[1-[2-(dimethylamino)ethyl]-5-(methyloxy)-2,3-dihydro-1H-indol-6-yl]amino}-1H-pyrrolo[2,3-d]pyrimidin-4-yl)amino]-6-fluorobenzamide]	> 500 nM	5.01 to 200 nM	> 1000 nM	250 to 1000 nM
COc1cc2c(cc1Nc1nc(Nc3cccc(F)c3C(N)=O)c3cc(C)[nH]c3n1)N(C(=O)CN(C)C)CC2 [Example 262, 2-[(2-{[1-(N,N-dimethylglycyl)-5-(methyloxy)-2,3-dihydro-1H-indol-6-yl]amino}-6-methyl-1H-pyrrolo[2,3-d]pyrimidin-4-yl)amino]-6-fluorobenzamide]	100 to 500 nM	5.01 to 200 nM	> 1000 nM	> 1000 nM
CNC(=O)c1c(F)cccc1Nc1nc(Nc2cc3c(cc2OC)CCN(C(C)C)C3)nc2[nH]ccc12 [Example 235, 2-fluoro-N-methyl-6-[(2-{[2-(1-methylethyl)-6-(methyloxy)-1,2,3,4-tetrahydro-7-isoquinolinyl]amino}-1H-pyrrolo[2,3-d]pyrimidin-4-yl)amino]benzamide]	> 500 nM	1.26 to 3.98 nM	> 1000 nM	< 250 nM
COc1cc2c(cc1Nc1nc(Nc3cc(F)cc(F)c3C(N)=O)c3cc[nH]c3n1)N(C(=O)CN(C)C)CCC2 [Example 178, 2-[(2-{[1-(N,N-dimethylglycyl)-6-(methyloxy)-1,2,3,4-tetrahydro-7-quinolinyl]amino}-1H-pyrrolo[2,3-d]pyrimidin-4-yl)amino]-4,6-difluorobenzamide]	< 100 nM	0.251 to 1 nM	< 250 nM	< 250 nM
CNC(=O)c1c(F)cc(F)cc1Nc1nc(Nc2cc3c(cc2OC)CCN3C(=O)CN(C)C)nc2[nH]ccc12 [Example 190, 2-[(2-{[1-(N,N-dimethylglycyl)-5-(methyloxy)-2,3-dihydro-1H-indol-6-yl]amino}-1H-pyrrolo[2,3-d]pyrimidin-4-yl)amino]-4,6-difluoro-N-methylbenzamide]	< 100 nM	0.251 to 1 nM	250 to 1000 nM	< 250 nM
CCN(C)CC(=O)N1CCCc2cc(OC)c(Nc3nc(Nc4cccc(F)c4C(=O)NC)c4cc[nH]c4n3)cc21 [Example 132, 2-[(2{-[1-(N-ethyl-N-methylglycyl)-6-(methyloxy)-1,2,3,4-tetrahydro-7-quinolinyl]amino}-1H-pyrrolo[2,3-d]pyrimidin-4-yl)amino]-6-fluoro-N-methylbenzamide]	< 100 nM	5.01 to 200 nM	< 250 nM	< 250 nM
COc1cc2c(cc1Nc1nc(Nc3cccc(F)c3C(N)=O)c3cc[nH]c3n1)N(C(=O)CCN(C)C)CCC2 [Example 214, 2-[(2-{[1-(N,N-dimethyl-β-alanyl)-6-(methyloxy)-1,2,3,4-tetrahydro-7-quinolinyl]amino}-1H-pyrrolo[2,3-d]pyrimidin-4-yl)amino]-6-fluorobenzamide]	100 to 500 nM	5.01 to 200 nM	250 to 1000 nM	< 250 nM
COc1cc2c(cc1Nc1nc(Nc3cccc(F)c3C(N)=O)c3cc[nH]c3n1)N(C(=O)CN1CCN(C(C)C)CC1)CC2 [Example 186, 2-fluoro-6-[(2-{[1-{[4-(1-methylethyl)-1-piperazinyl]acetyl}-5-(methyloxy)-2,3-dihydro-1H-indol-6-yl]amino}-1H-pyrrolo[2,3-d]pyrimidin-4-yl)amino]benzamide]	> 500 nM	5.01 to 200 nM	> 1000 nM	250 to 1000 nM
CNC(=O)c1c(F)cccc1Nc1nc(Nc2cc3c(cc2OC)CCN3C(=O)CN(C)C)nc2[nH]cc(C)c12 [Example 258, 2-[(2-{[1-(N,N-dimethylglycyl)-5-(methyloxy)-2,3-dihydro-1H-indol-6-yl]amino}-5-methyl-1H-pyrrolo[2,3-d]pyrimidin-4-yl)amino]-6-fluoro-N-methylbenzamide]	100 to 500 nM	0.251 to 1 nM	250 to 1000 nM	250 to 1000 nM
CCCN(CCC)[C@@H](C)C(=O)N1CCc2cc(OC)c(Nc3nc(Nc4cccc(F)c4C(N)=O)c4cc[nH]c4n3)cc21 [Example 192, 2-[(2-{[1-(N,N-dipropyl-L-alanyl)-5-(methyloxy)-2,3-dihydro-1H-indol-6-yl]amino}-1H-pyrrolo[2,3-d]pyrimidin-4-yl)amino]-6-fluorobenzamide]	< 100 nM	5.01 to 200 nM	250 to 1000 nM	< 250 nM
COc1cc2c(cc1Nc1nc(Nc3cccc(F)c3C(N)=O)c3cc[nH]c3n1)N(C(=O)[C@@H]1CCCN1C)CC2 [Example 147, 2-fluoro-6-[(2-{[5-(methyloxy)-1-(1-methyl-L-prolyl)-2,3-dihydro-1H-indol-6-yl]amino}-1H-pyrrolo[2,3-d]pyrimidin-4-yl)amino]benzamide]	100 to 500 nM	5.01 to 200 nM	250 to 1000 nM	< 250 nM
COc1cc2c(cc1Nc1nc(Nc3cccc(F)c3C(N)=O)c3cc[nH]c3n1)N(C(=O)CN1CCC1)CC2 [Example 143, 2-[(2-{[1-(1-azetidinylacetyl)-5-(methyloxy)-2,3-dihydro-1H-indol-6-yl]amino}-1H-pyrrolo[2,3-d]pyrimidin-4-yl)amino]-6-fluorobenzamide]	100 to 500 nM	1.26 to 3.98 nM	250 to 1000 nM	< 250 nM
CNC(=O)c1c(F)cccc1Nc1nc(Nc2cc3c(cc2OC)CCN3C(=O)COC)nc2[nH]ccc12 [Example 150, 2-fluoro-N-methyl-6-{[2-({5-(methyloxy)-1-[(methyloxy)acetyl]-2,3-dihydro-1H-indol-6-yl}amino)-1H-pyrrolo[2,3-d]pyrimidin-4-yl]amino}benzamide]	> 500 nM	5.01 to 200 nM	> 1000 nM	250 to 1000 nM
COc1cc2c(cc1Nc1nc(Nc3cccc(F)c3C(N)=O)c3cc[nH]c3n1)N(C(=O)CCN(C)C)CC2 [Example 118, 2-[(2-{[1-(N,N-dimethyl-b-alanyl)-5-(methyloxy)-2,3-dihydro-1H-indol-6-yl]amino}-1H-pyrrolo[2,3-d]pyrimidin-4-yl)amino]-6-fluorobenzamide]	> 500 nM	5.01 to 200 nM	250 to 1000 nM	< 250 nM
COc1cc2c(cc1Nc1nc(Nc3cccc(F)c3C(N)=O)c3cc[nH]c3n1)CN(CCCN(C)C)CC2 [Example 232, 2-[(2-{[2-[3-(dimethylamino)propyl]-6-(methyloxy)-1,2,3,4-tetrahydro-7-isoquinolinyl]amino}-1H-pyrrolo[2,3-d]pyrimidin-4-yl)amino]-6-fluorobenzamide]	> 500 nM	1.26 to 3.98 nM	> 1000 nM	< 250 nM
